According to patent US20120244568A1, “LABEL-FREE RIGID CELL ASSAY METHOD” (priority 2011, published 2012):
pIC50: −log10 of the molar value. Read-outs that look alike come from different tables or passages of the source.

Assays:
Format in all cases: cell-based
[1] = test system: Saccharomyces cerevisiae S288C yeast cells; assay: label-free DRCA multi-wavelength SPR yeast cell assay (response to a substance); settings: 10 micromolar; for effect on yeast cell growth: 4,000 cells per well, pre-incubated 60 minutes; for effect on yeast cell growth / effect on yeast cell growth measured at short penetration depth: FIG. 4; for effect on yeast cell growth compared with the other modulators: consistent at three different penetration depths, versus fluconazole and ketaconazole; for effect on yeast cell growth measured at short penetration depth: 660 nm laser source
Description: Yeast cells were cultured on an YPD agar plate at 28° C. for 16 hours and kept at 4° C. until just prior to use. From the agar plate, yeast cells were collected and seeded into YPD liquid medium and cultured at 28° C. for 8 hours. The cells were then diluted with its liquid medium to obtain a cell density of about 4,000 cells/mL as a starting point for cell inhibition studies. For the detection of yeast cells, the cells were collected at the late logarithm phase and collected by centrifugation at 10,000 g for 10 minutes. Cells were further washed to remove debris and/or high index material such as glucose.
A DRCA™ system equipped with three lasers having wavelengths of, for example, 660 nm, 980 nm, and 1480 nm, was selected for the study. The system allows for simultaneously measuring a cell at three different wavelengths. The output measures the angular change of the surface plasmon resonance (SPR). The angular change indicates a mass change within the defined sensing region. The depth of the sensing region depends on the wavelength of the selected illuminating laser as listed, for example, in Table 1.
A user-assembled assay plate was first assembled with a gold coated glass slide and an 80-well holey plate (cut from a 384-well holey plate). Yeast cells were seeded into the wells with or without a compound and incubated in the instrument for approximately 60 minutes at 22° C. The cell responses were then measured and data were collected according to the description in the aforementioned U.S. Ser. No. 12/956,464.
A procedure for accomplishing a label-free rigid cell assay response to a substance in accord with the present disclosure can include, for example: • 1. clean and assemble an 80-well holey plate on top of a gold chip; • 2. sterile the assembled chip by exposure to high intensity UV light for around 5 minutes; • 3. grow yeast cells until the middle or late logarithm stage, preferably the former for an active inoculum; • 4. turn on the DRCA optical system to warm-up the lasers for, e.g., 1 hour; • 5. collect yeast cell by centrifugation at, e.g., 10,000 g for 10 minutes; • 6. wash the cells with at least 5× fold volume of the pellet using a saline buffer, such as phosphate saline buffer; • 7. vortex the cell solution using, for example, a bench top vortex mixer; • 8. collect yeast cells by centrifugation at e.g. 10,000 g for 10 minutes; • 9. repeat steps 6 to 8 for approximately three (3) times to remove high refractive index materials, such as, sugar residues, cell debris, or like materials, and mixtures thereof; • 10. count yeast cell number using, e.g., a hemocytometer • 11. prepare assay buffer with or without a substance (compound/bio-molecule); • 12. load assay buffer with or without a substance (compound/bio-molecule) to each well of the cell chamber and let it equilibrate for, e.g., 60 minutes; • 13. record the baselines for, e.g., 15 minutes; • 14. add a small amount of yeast cells, such as 4000 cells/mL to each well; • 15. monitor the yeast cell response, for example, to an added substance, with a plurality of wavelengths and depths; • 16. record the data; and • 17. analyze the data by calculating the difference between the end points and baselines.
Four modulator compounds were used to study of their effect on yeast cells. A user assembled (i.e., a virtual) assay plate was seeded with 4,000 cells per well. A modulator was added to a test well at 10 micromolar and then pre-incubated for 60 minutes. Each modulator was tested in three replicates. The well without a modulator was a positive control. […] However, the difference between the modulators and controls was more substantial when measured at the longest penetration depth using the 1480 nm laser source. […] Accordingly, the disclosed method can be useful for drug screening, drug development, and like applications.
Time course of a modulator effect. The effect of an amphotericin compound on yeast cells was monitored in real time under ambient condition. […]

[2] = test system: Saccharomyces cerevisiae S288C yeast cells; assay: turbidometric determination with a visible light spectrophotometer (absorbance OD580) of DRCA assay samples; settings: 10 micromolar, FIG. 7
Excerpt: FIG. 7 charts absorbance readings of a conventional turbidometric determination using a visible light spectrophotometer, for cultured yeast cells without amphotericin (left; amphotericin at 0 micromolar) and contacted with amphotericin (right; amphotericin at 10 micromolar). Turbidity can be used as an indirect measure of cell growth. Using a standard curve generated with serial dilutions of known number cells, one can estimate cell density in a turbid cell culture.
(§1) The samples from the aforementioned DRCA assay were further analyzed with a spectrophotometer (Agilent Technologies, Wilmington, Del.) and hemocytometer (Thermo Fisher Scientific, Hudson, N.H.). […] With amphotericin treatment, the cell number was about zero, compared to about 12,000,000 cells in the untreated sample, see FIG. 8 (yeast cell count by hemocytometer) for amphotericin (80) and no amphotericin (82) at each of three wavelengths.

[3] = test system: Saccharomyces cerevisiae S288C yeast cells; assay: yeast cell count by hemocytometer of DRCA assay samples; settings: with amphotericin treatment; FIG. 8; untreated sample about 12,000,000 cells
Excerpt: as §1

[4] = test system: Saccharomyces cerevisiae S288C yeast cells; assay: label-free DRCA multi-wavelength SPR yeast cell assay (response to a substance)

Row | SMILES | effect on yeast cell growth [1] | change in response over time (time course) ([1]; about 16 hours, any given penetration depth (660, 980, 1480 nm), FIG. 5) | effect on yeast cell growth compared with the other modulators [1] | cell growth by turbidity [2] | OD580 absorbance reading ([2]; untreated sample about 12) | cell number [3] | pIC50 ([4]; read-out: IC50 (inhibition curve, yeast cells), 660 nm wavelength, about 4000 cells/well, 3,000 nM serially diluted at 3 fold, R^2=0.9072) | pIC50 ([4]; read-out: IC50 (inhibition curve, yeast cells), 980 nm wavelength, about 4000 cells/well, 3,000 nM serially diluted at 3 fold, R^2=0.9486) | pIC50 ([4]; read-out: IC50 (inhibition curve, yeast cells), 1480 nm wavelength, about 4000 cells/well, 3,000 nM serially diluted at 3 fold, R^2=0.9817) | effect on yeast cell growth measured at short penetration depth [1]
1 | C[C@@H]1[C@H](O)[C@@H](C)/C=C/C=C/C=C/C=C/C=C/C=C/C=C/[C@H](O[C@@H]2O[C@H](C)[C@@H](O)[C@H](N)[C@@H]2O)C[C@@H]2O[C@](O)(C[C@@H](O)C[C@@H](O)[C@H](O)CC[C@@H](O)C[C@@H](O)CC(=O)O[C@H]1C)C[C@H](O)[C@H]2C(=O)O [amphotericin, Amphotericin] | had an effect on yeast cell growth | almost no change in response | more noticeable effect | cell growth was inhibited | about zero | about zero | 6.43 | 6.57 | 6.80 | –
2 | Clc1ccccc1C(c1ccccc1)(c1ccccc1)n1ccnc1 [clotrimazole] | had an effect on yeast cell growth | – | more noticeable effect | – | – | – | – | – | – | –
3 | OC(Cn1cncn1)(Cn1cncn1)c1ccc(F)cc1F [fluconazole] | had an effect on yeast cell growth | – | – | – | – | – | – | – | – | not detectable
4 | CC(=O)N1CCN(c2ccc(OCC3COC(Cn4ccnc4)(c4ccc(Cl)cc4Cl)O3)cc2)CC1 (stereo not drawn) [ketaconazole] | had an effect on yeast cell growth | – | – | – | – | – | – | – | – | not detectable
